Test system: human colon adenocarcinoma (PTC) xenografts
Assay: In vivo antitumor activity on PTC xenografts in nude mice
Set-up: species or system Balb/c athymic mice
Settings: for percentage inhibition of tumor growth as compared to controls: 8.5 μg/100 μl intravenously twice a day for 10 days
Method: The antitumor activity of SEQ ID NO:2 and SEQ ID NO:3 was studied in human colon adenocarcinoma (PTC) xenografts in nude mice. PTC tumor xenografts were grown in Balb/c athymic mice by subcutaneous inoculation of a single cell suspension of PTC cells (15×10^6 cells/100 μl). The tumor bearing animals were divided into 3 groups of three animals each including one group comprising untreated control animals. Treatment with novel somatostatin analogs was initiated when the average tumor volumes, as measured using a vernier caliper, were between 400-800 mm^3. Solutions of SEQ ID NO:2 and SEQ ID NO:3 were prepared at a concentration of 85 μg/ml and intravenously administered to the assigned group of tumor bearing animals at a dose of 8.5 μg/100 μl twice a day so that the total dose of […] was administered to each animal. The treatment was continued for a period of 10 days.
The antitumor activity of the compounds was monitored by measuring tumor volumes every fourth day using the formula W*W*L*[…] (W=smaller diameter, L=larger diameter). The percentage inhibition of tumor growth was calculated using the formula (1-tumor volume-treated/tumor volume control)* 100.

[1] = day 0, average of three animals
[2] = day 9, average of three animals
[3] = day 13, average of three animals
[4] = day 18, average of three animals
[5] = day 21, average of three animals

## D-Phe-Cys-Tyr-D-Trp-Orn-Ac5c-Pen-Thr-NH2 [SEQ ID NO: 3]
Animal I, day 0
  tumor volume, individual animal: 0 mm^3
Animal I, day 9
  tumor volume, individual animal: 560 mm^3
Animal I, day 13
  tumor volume, individual animal: 1946 mm^3
Animal I, day 18
  tumor volume, individual animal: 3177 mm^3
Animal I, day 21
  tumor volume, individual animal: 0 mm^3
Animal II, day 0
  tumor volume, individual animal: 0 mm^3
Animal II, day 9
  tumor volume, individual animal: 774 mm^3
Animal II, day 13
  tumor volume, individual animal: 1800 mm^3
Animal II, day 18
  tumor volume, individual animal: 3610 mm^3
Animal II, day 21
  tumor volume, individual animal: 4939 mm^3
Animal III, day 0
  tumor volume, individual animal: 0 mm^3
Animal III, day 9
  tumor volume, individual animal: 324 mm^3
Animal III, day 13
  tumor volume, individual animal: 1530 mm^3
Animal III, day 18
  tumor volume, individual animal: 4234 mm^3
Animal III, day 21
  tumor volume, individual animal: 7301 mm^3
[1]
  tumor volume, Avg: 0 mm^3
[2]
  tumor volume, Avg: 552 mm^3
[3]
  tumor volume, Avg: 1758 mm^3
[4]
  tumor volume, Avg: 3674 mm^3
[5]
  tumor volume, Avg: 4080 mm^3
Day 21
  percentage inhibition of tumor growth as compared to controls: 54.7%

## D-Phe-Cys-Tyr-D-Trp-Orn-Deg-Pen-Thr-NH2 [SEQ ID NO: 2]
Animal IV, day 0
  tumor volume, individual animal: 0 mm^3
Animal IV, day 9
  tumor volume, individual animal: 480 mm^3
Animal IV, day 13
  tumor volume, individual animal: 1254 mm^3
Animal IV, day 18
  tumor volume, individual animal: 1965 mm^3
Animal IV, day 21
  tumor volume, individual animal: 491 mm^3
Animal V, day 0
  tumor volume, individual animal: 0 mm^3
Animal V, day 9
  tumor volume, individual animal: 678 mm^3
Animal V, day 13
  tumor volume, individual animal: 2196 mm^3
Animal V, day 18
  tumor volume, individual animal: 5240 mm^3
Animal V, day 21
  tumor volume, individual animal: 4839 mm^3
Animal VI, day 0
  tumor volume, individual animal: 0 mm^3
Animal VI, day 9
  tumor volume, individual animal: 806 mm^3
Animal VI, day 13
  tumor volume, individual animal: 2333 mm^3
Animal VI, day 18
  tumor volume, individual animal: 4453 mm^3
Animal VI, day 21
  tumor volume, individual animal: 6250 mm^3
[1]
  tumor volume, Avg: 0 mm^3
[2]
  tumor volume, Avg: 654 mm^3
[3]
  tumor volume, Avg: 1927 mm^3
[4]
  tumor volume, Avg: 3886 mm^3
[5]
  tumor volume, Avg: 3860 mm^3
Day 21
  percentage inhibition of tumor growth as compared to controls: 57.1%
